Laboratory results reported in patent US10662229B2, “Spider venom peptides and methods of use for modulating sodium channels” (priority 2016, dated 2020).
Where a SMILES comes first, the peptide text is derived from it. Bridges are numbered along the chain shown (N, C = ends).

Tests used:
Format in all cases: cell-based
hNav1.1 = target: T1, hNav1.1 (Homo sapiens, UniProt P35498); experiment: FLIPR membrane potential assay, hNav1.1; conditions: for Selectivity for Nav1.7, Nav subtype 1.1: membrane potential assay
T1 construct: host or cells: HEK293
Summary of the method: (§1)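 Stable HEK293 lines, one per hNav isoform; red membrane potential dye, 30 min, 37° C; FLIPR^TETRA read at 1 s intervals over 300 s post-agonist.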

hNav1.2 = target: T2, hNav1.2 (Homo sapiens, UniProt Q99250); experiment: FLIPR membrane potential assay, hNav1.2; conditions: for Selectivity for Nav1.7, Nav subtype 1.2: membrane potential assay
T2 construct: host or cells: HEK293
Summary of the method: as §1

hNav1.3 = target: T3, hNav1.3 (Homo sapiens, UniProt Q9NY46); experiment: FLIPR membrane potential assay, hNav1.3; conditions: for Selectivity for Nav1.7, Nav subtype 1.3: membrane potential assay
T3 construct: host or cells: HEK293
Summary of the method: as §1

hNav1.4 = target: T4, hNav1.4 (Homo sapiens, UniProt P35499); experiment: FLIPR membrane potential assay, hNav1.4; conditions: for Selectivity for Nav1.7, Nav subtype 1.4: membrane potential assay
T4 construct: host or cells: HEK293
Summary of the method: as §1

hNav1.5 = target: T5, hNav1.5 (Homo sapiens, UniProt Q14524); experiment: FLIPR membrane potential assay, hNav1.5; conditions: for Selectivity for Nav1.7, Nav subtype 1.5: membrane potential assay
T5 construct: host or cells: HEK293
Summary of the method: as §1

hNav1.6 = target: T6, hNav1.6 (Homo sapiens, UniProt Q9UQD0); experiment: FLIPR membrane potential assay, hNav1.6; conditions: for Selectivity for Nav1.7, Nav subtype 1.6: membrane potential assay
T6 construct: host or cells: HEK293
Summary of the method: as §1

hNav1.7 [1] = target: T7, hNav1.7 (Homo sapiens, UniProt Q15858); experiment: FLIPR membrane potential assay, hNav1.7; conditions: for Selectivity for Nav1.7, Nav subtype 1.7: membrane potential assay, reference subtype
T7 construct: host or cells: HEK293
Summary of the method: as §1

hNav1.8 = target: T8, hNav1.8 (Homo sapiens, UniProt Q9Y5Y9); experiment: FLIPR membrane potential assay, hNav1.8; conditions: for Selectivity for Nav1.7, Nav subtype 1.8: membrane potential assay
T8 construct: host or cells: HEK293
Summary of the method: as §1

hNav1.7 [2] = target: T7, hNav1.7; experiment: Automated patch clamping (QPatch-16), hNav1.7; conditions: 100 nM
Method: HEK293 cells stably expressing hNav1.1-1.7 or CHO cells stably expressing hNav1.8 (as described in Example 3 above) were cultured in a T-175 flask in selection antibiotic-free media at 37° C. Cells were grown to 70-80% confluence and harvested using Detachin (Bio-Scientific, NSW, Australia) at 37° C. for 2 min. Dissociated cells were then resuspended in Ex-Cell ACF CHO Medium with HEPES (25 mM; Sigma-Aldrich Co.) and allowed to recover on the QStirrer for 30 min.
The extracellular solution contained in mM: NaCl 145, KCl 4, CaCl2 2, MgCl2 1, HEPES 10 and glucose 10. The pH was adjusted to 7.4 with NaOH and osmolarity was adjusted with sucrose to 305 mOsm. The intracellular solution contained in mM: CsF 140, ethylene glycol tetraacetic acid (EGTA)/CsOH 1/5, HEPES 10 and NaCl 10. The pH was adjusted to 7.3 with CsOH and osmolarity adjusted with sucrose to 320 mOsm.
Whole-cell patch-clamp experiments were performed on a QPatch-16 automated electrophysiology platform (Sophion Bioscience, Ballerup, Denmark) using 16-channel planar patch chip plates (QPlates; Sophion Bioscience) with a patch hole diameter of 1 μm and resistance of 2±0.02 MΩ with the following parameters: positioning pressure −60 mbar, minimum seal resistance 0.1 GΩ, holding potential −100 mV, holding pressure −20 mbar.
Whole-cell currents were filtered at 5 kHz and acquired at 25 kHz.
The current-voltage (IV) curve was constructed with a holding potential of −80 mV followed by a pre-pulse of −100 mV for 50 ms and a series of 50 ms step pulses that ranged from −80 to 50 mV in 5 mV increments before returning to a holding potential of −80 mV. Voltage-dependence of activation was determined as normalized Nav conductance (GNa) using: GNa=INa/(Vmemb−Vrev), where Vmemb is the membrane potential and Vrev is the reversal potential for each cell. The voltage of activation data was fitted to a Boltzmann sigmoidal curve using GraphPad Prism, version 6.0.

T7 sequence (Q15858 whole entry): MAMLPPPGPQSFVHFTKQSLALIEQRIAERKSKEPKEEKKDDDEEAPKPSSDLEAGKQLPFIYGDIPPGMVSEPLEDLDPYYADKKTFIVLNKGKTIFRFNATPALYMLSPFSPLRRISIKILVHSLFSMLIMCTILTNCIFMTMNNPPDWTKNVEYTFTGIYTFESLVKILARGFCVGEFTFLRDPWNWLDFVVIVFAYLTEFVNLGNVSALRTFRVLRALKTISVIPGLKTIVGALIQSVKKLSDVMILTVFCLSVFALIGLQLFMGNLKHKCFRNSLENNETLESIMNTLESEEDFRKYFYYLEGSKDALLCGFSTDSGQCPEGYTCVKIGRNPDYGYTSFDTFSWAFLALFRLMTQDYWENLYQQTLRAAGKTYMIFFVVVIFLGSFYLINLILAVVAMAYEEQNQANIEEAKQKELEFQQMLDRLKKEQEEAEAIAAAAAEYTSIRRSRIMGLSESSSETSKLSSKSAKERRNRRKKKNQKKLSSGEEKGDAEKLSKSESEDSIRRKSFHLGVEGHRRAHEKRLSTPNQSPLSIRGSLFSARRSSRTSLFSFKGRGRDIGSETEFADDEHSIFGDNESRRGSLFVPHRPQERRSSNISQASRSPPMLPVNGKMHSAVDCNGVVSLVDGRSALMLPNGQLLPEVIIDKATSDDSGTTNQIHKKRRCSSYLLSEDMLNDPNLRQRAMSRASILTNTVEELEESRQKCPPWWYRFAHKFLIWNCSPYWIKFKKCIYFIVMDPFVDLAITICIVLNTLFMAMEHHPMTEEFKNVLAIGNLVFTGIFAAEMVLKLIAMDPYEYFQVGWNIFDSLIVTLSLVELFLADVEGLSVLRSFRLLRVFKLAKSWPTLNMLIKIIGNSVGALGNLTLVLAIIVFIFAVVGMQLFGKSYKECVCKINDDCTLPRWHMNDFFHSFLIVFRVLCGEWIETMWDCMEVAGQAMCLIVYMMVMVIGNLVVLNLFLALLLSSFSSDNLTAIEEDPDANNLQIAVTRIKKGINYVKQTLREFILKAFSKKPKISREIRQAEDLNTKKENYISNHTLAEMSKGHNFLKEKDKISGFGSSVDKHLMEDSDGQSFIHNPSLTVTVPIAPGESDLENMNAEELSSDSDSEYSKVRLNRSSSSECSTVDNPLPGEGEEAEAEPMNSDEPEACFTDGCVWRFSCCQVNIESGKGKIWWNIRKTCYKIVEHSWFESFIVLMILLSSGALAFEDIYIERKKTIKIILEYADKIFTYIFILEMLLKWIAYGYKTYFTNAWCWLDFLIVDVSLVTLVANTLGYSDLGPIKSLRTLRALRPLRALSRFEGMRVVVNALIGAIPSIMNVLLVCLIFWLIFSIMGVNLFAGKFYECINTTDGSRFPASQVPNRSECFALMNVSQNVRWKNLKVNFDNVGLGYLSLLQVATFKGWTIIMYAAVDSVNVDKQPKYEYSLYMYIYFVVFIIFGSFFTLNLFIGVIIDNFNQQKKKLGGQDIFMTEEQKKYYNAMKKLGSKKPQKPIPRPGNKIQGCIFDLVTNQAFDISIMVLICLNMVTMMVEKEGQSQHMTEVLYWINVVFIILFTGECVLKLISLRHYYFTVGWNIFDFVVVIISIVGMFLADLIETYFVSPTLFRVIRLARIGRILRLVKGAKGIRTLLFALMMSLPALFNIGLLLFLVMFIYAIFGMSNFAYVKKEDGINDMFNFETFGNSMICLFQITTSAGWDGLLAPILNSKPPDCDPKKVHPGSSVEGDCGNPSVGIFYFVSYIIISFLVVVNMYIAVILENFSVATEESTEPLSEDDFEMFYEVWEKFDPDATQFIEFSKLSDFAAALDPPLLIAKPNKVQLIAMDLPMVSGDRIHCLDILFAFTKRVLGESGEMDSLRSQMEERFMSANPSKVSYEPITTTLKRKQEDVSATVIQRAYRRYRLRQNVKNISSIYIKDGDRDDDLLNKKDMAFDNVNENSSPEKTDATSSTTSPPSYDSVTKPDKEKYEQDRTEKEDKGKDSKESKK
T8 sequence (Q9Y5Y9 whole entry): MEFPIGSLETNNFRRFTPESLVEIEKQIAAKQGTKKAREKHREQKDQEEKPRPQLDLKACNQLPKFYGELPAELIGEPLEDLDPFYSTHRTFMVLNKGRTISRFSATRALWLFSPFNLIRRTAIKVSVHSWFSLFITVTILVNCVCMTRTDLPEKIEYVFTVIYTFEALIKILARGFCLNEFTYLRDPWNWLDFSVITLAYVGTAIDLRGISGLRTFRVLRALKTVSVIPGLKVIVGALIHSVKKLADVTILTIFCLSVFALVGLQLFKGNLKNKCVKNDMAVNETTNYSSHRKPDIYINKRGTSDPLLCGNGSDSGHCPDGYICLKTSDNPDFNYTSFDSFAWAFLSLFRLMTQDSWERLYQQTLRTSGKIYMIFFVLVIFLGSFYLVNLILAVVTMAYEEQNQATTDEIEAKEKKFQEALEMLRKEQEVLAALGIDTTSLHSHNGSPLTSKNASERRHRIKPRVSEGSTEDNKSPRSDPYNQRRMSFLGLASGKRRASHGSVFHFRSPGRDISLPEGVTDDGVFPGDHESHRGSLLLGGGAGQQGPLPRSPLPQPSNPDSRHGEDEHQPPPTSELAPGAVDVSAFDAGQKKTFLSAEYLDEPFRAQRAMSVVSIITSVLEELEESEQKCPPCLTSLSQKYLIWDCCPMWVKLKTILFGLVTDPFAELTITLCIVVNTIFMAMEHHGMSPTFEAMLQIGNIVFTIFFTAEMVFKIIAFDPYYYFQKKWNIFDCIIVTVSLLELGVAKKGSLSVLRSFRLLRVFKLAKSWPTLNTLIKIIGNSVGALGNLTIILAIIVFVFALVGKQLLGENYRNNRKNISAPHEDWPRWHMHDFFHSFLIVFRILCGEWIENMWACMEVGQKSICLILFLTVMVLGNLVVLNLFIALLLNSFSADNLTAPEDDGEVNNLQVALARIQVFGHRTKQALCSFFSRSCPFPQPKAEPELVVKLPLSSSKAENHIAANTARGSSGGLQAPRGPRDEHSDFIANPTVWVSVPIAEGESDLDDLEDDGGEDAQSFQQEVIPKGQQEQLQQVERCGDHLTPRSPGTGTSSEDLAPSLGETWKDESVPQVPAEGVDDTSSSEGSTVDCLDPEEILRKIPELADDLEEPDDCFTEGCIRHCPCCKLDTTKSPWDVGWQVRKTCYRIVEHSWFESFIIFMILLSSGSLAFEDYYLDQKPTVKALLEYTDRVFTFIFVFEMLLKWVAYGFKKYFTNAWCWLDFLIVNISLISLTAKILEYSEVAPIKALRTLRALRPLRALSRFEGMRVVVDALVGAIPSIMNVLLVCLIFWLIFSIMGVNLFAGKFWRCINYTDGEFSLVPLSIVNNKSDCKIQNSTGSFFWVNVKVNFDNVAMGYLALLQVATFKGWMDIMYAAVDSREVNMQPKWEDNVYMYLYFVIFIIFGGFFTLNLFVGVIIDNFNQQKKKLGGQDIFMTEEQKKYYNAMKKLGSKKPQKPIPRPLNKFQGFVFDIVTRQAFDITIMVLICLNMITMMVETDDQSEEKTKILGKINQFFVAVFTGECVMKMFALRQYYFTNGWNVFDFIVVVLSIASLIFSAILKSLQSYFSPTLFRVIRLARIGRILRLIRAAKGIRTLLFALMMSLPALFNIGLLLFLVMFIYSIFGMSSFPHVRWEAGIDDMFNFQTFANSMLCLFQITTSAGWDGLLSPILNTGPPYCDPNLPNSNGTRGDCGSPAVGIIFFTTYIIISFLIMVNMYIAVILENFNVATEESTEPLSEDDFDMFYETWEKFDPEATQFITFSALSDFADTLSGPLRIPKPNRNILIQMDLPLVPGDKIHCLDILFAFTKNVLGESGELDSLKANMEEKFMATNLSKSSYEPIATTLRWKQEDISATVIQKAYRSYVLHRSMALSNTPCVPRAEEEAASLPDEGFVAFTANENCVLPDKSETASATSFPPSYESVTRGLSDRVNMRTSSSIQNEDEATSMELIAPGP

SMILES | IC50 (hNav1.1) [µM] | Selectivity for Nav1.7, Nav subtype 1.1 (hNav1.1) | IC50 (hNav1.2) [µM] | Selectivity for Nav1.7, Nav subtype 1.2 (hNav1.2) | IC50 (hNav1.3) [µM] | Selectivity for Nav1.7, Nav subtype 1.3 (hNav1.3) | IC50 (hNav1.4) [µM] | Selectivity for Nav1.7, Nav subtype 1.4 (hNav1.4) | IC50 (hNav1.5) [µM] | Selectivity for Nav1.7, Nav subtype 1.5 (hNav1.5) | IC50 (hNav1.6) [µM] | Selectivity for Nav1.7, Nav subtype 1.6 (hNav1.6) | IC50 (hNav1.7 [1]) [µM] | Selectivity for Nav1.7, Nav subtype 1.7 (hNav1.7 [1]) | IC50 (hNav1.8) [µM] | Selectivity for Nav1.7, Nav subtype 1.8 (hNav1.8) | effect on the current voltage (IV) relationship of Nav1.7 (hNav1.7 [2])
CSCC[C@@H]1NC(=O)[C@H](Cc2ccc(O)cc2)NC(=O)[C@H](CCCNC(=N)N)NC(=O)[C@@H](NC(=O)[C@@H](N)CC(=O)O)CSSC[C@@H]2NC(=O)[C@@H]3CSSC[C@@H](C(=O)N[C@@H](C)C(=O)N[C@@H](Cc4c[nH]c5ccccc45)C(=O)N[C@@H](CC(=O)O)C(=O)N[C@@H](Cc4ccccc4)C(=O)N[C@H](C(=O)N[C@@H](Cc4ccccc4)C(=O)N[C@H](C(=O)O)[C@@H](C)O)[C@@H](C)O)NC(=O)[C@H](Cc4ccc(O)cc4)NC(=O)[C@H](CCCCN)NC(=O)[C@H](CCSC)NC(=O)[C@H](CC(=O)O)NC(=O)[C@H](CCCNC(=N)N)NC(=O)[C@H](CCCCN)NC(=O)[C@H](CSSC[C@H](NC(=O)[C@H](CC(=O)O)NC(=O)CNC(=O)[C@H](Cc4ccccc4)NC1=O)C(=O)N[C@@H](CCC(=O)O)C(=O)N[C@@H](CCCCN)C(=O)N[C@@H](CC(=O)O)C(=O)N[C@@H](CCC(=O)O)C(=O)N[C@@H](CC(=O)O)C(=O)N3)NC(=O)CNC(=O)[C@H](CC(C)C)NC(=O)[C@H](Cc1c[nH]cn1)NC(=O)[C@H](CCCCN)NC2=O [[K24D]Pnc1a] (H-DCRYMFGDCEKDEDCCKHLGCKRDMKYCAWDFTFT-OH; disulfide 2-16, 9-21, 15-28) | 32 | 63 | 38 | 7 | 20 | 39 | 12 | 24 | > 30 | 59 | > 30 | 14 | 0.51 | 1 | > 30 | 40 | minimal effect
CSCC[C@@H]1NC(=O)[C@H](Cc2ccc(O)cc2)NC(=O)[C@H](CCCNC(=N)N)NC(=O)[C@@H](NC(=O)[C@@H](N)CC(=O)O)CSSC[C@@H]2NC(=O)[C@@H]3CSSC[C@@H](C(=O)N[C@@H](C)C(=O)N[C@@H](Cc4c[nH]c5ccccc45)C(=O)N[C@@H](CC(=O)O)C(=O)N[C@@H](Cc4ccccc4)C(=O)N[C@H](C(=O)N[C@@H](Cc4ccccc4)C(=O)N[C@H](C(=O)O)[C@@H](C)O)[C@@H](C)O)NC(=O)[C@H](Cc4ccc(O)cc4)NC(=O)[C@H](CCCCN)NC(=O)[C@H](CCSC)NC(=O)[C@H](CCCCN)NC(=O)[C@H](CCCCN)NC(=O)[C@H](CCCCN)NC(=O)[C@H](CSSC[C@H](NC(=O)[C@H](CC(=O)O)NC(=O)CNC(=O)[C@H](Cc4ccccc4)NC1=O)C(=O)N[C@@H](CCC(=O)O)C(=O)N[C@@H](CCCCN)C(=O)N[C@@H](CC(=O)O)C(=O)N[C@@H](CCC(=O)O)C(=O)N[C@@H](CC(=O)O)C(=O)N3)NC(=O)CNC(=O)[C@H](CC(C)C)NC(=O)[C@H](Cc1c[nH]cn1)NC(=O)[C@H](CCCCN)NC2=O [[R23K]Pnc1a] (H-DCRYMFGDCEKDEDCCKHLGCKKKMKYCAWDFTFT-OH; disulfide 2-16, 9-21, 15-28) | 8 | 33 | 3 | 14 | 5 | 19 | 10 | 40 | > 30 | >120 | 16 | 63 | 0.251 | 1 | > 30 | >120 | 
CSCC[C@@H]1NC(=O)[C@H](Cc2ccc(O)cc2)NC(=O)[C@H](CCCNC(=N)N)NC(=O)[C@@H](NC(=O)[C@@H](N)CC(=O)O)CSSC[C@@H]2NC(=O)[C@@H]3CSSC[C@@H](C(=O)N[C@@H](C)C(=O)N[C@@H](C)C(=O)N[C@@H](CC(=O)O)C(=O)N[C@@H](Cc4ccccc4)C(=O)N[C@H](C(=O)N[C@@H](Cc4ccccc4)C(=O)N[C@H](C(=O)O)[C@@H](C)O)[C@@H](C)O)NC(=O)[C@H](Cc4ccc(O)cc4)NC(=O)[C@H](CCCCN)NC(=O)[C@H](CCSC)NC(=O)[C@H](CCCCN)NC(=O)[C@H](CCCNC(=N)N)NC(=O)[C@H](CCCCN)NC(=O)[C@H](CSSC[C@H](NC(=O)[C@H](CC(=O)O)NC(=O)CNC(=O)[C@H](Cc4ccccc4)NC1=O)C(=O)N[C@@H](CCC(=O)O)C(=O)N[C@@H](CCCCN)C(=O)N[C@@H](CC(=O)O)C(=O)N[C@@H](CCC(=O)O)C(=O)N[C@@H](CC(=O)O)C(=O)N3)NC(=O)CNC(=O)[C@H](CC(C)C)NC(=O)[C@H](Cc1c[nH]cn1)NC(=O)[C@H](CCCCN)NC2=O [[W30A]Pnc1a] (H-DCRYMFGDCEKDEDCCKHLGCKRKMKYCAADFTFT-OH; disulfide 2-16, 9-21, 15-28) | 15 | 2 | 24 | 3 | 11 | 2 | 12 | 2 | 6 | 0.9 | > 30 | 4 | 7 | 1 | > 30 | 4 | 
CSCC[C@@H]1NC(=O)[C@H](C)NC(=O)[C@H](CCCNC(=N)N)NC(=O)[C@@H](NC(=O)[C@@H](N)CC(=O)O)CSSC[C@@H]2NC(=O)[C@@H]3CSSC[C@@H](C(=O)N[C@@H](C)C(=O)N[C@@H](Cc4c[nH]c5ccccc45)C(=O)N[C@@H](CC(=O)O)C(=O)N[C@@H](Cc4ccccc4)C(=O)N[C@H](C(=O)N[C@@H](Cc4ccccc4)C(=O)N[C@H](C(=O)O)[C@@H](C)O)[C@@H](C)O)NC(=O)[C@H](Cc4ccc(O)cc4)NC(=O)[C@H](CCCCN)NC(=O)[C@H](CCSC)NC(=O)[C@H](CCCCN)NC(=O)[C@H](CCCNC(=N)N)NC(=O)[C@H](CCCCN)NC(=O)[C@H](CSSC[C@H](NC(=O)[C@H](CC(=O)O)NC(=O)CNC(=O)[C@H](Cc4ccccc4)NC1=O)C(=O)N[C@@H](CCC(=O)O)C(=O)N[C@@H](CCCCN)C(=O)N[C@@H](CC(=O)O)C(=O)N[C@@H](CCC(=O)O)C(=O)N[C@@H](CC(=O)O)C(=O)N3)NC(=O)CNC(=O)[C@H](CC(C)C)NC(=O)[C@H](Cc1c[nH]cn1)NC(=O)[C@H](CCCCN)NC2=O [[Y4A]Pnc1a] (H-DCRAMFGDCEKDEDCCKHLGCKRKMKYCAWDFTFT-OH; disulfide 2-16, 9-21, 15-28) | 17 | 19 | 8 | 8 | 20 | 22 | 12 | 12 | 18 | 20 | > 30 | >30 | 0.934 | 1 | > 30 | >30 | 
